According to patent US9073855B2, “BCL-2 selective apoptosis-inducing agents for the treatment of cancer and immune diseases” (AbbVie Inc., priority 2008, dated 2015):

Tests used:
GST-Bcl-2 = GST-Bcl-2 (Homo sapiens, UniProt P10415); assay: TR-FRET binding assay, GST-Bcl-2 with F-Bak peptide probe; conditions: for Ki: TR-FRET Binding Affinity
Summary of the method: (§1)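 Compounds were serially diluted in DMSO from a 50 μM starting solution (2× the starting concentration; 10% DMSO). Plates were incubated for 3 h at room temperature, and TR-FRET was read with 340/35 nm excitation and emission at 520/525 nm (F-Bak) and 495/510 nm (Tb antibody). Ki values were calculated using Wang's competitive-binding equation.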

GST-Bcl-XL = GST-Bcl-XL (Homo sapiens, UniProt Q07817); assay: TR-FRET binding assay, GST-Bcl-XL with F-Bak peptide probe; conditions: TR-FRET Binding Affinity
Chain of GST-Bcl-XL (Q07817 whole entry): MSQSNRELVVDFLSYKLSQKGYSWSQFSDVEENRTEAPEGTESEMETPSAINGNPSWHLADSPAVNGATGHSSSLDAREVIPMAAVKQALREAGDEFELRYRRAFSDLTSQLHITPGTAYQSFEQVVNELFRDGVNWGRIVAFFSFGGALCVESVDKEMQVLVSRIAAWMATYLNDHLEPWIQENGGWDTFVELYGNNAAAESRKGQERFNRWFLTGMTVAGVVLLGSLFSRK
Summary of the method: as §1

[1] = TR-FRET, Bcl-XL Ki divided by Bcl-2 Ki
[2] = GST-Bcl-XL, F-Bak peptide probe
[3] = ratio of TR-FRET Ki values, Bcl-XL over Bcl-2

Chain of GST-Bcl-2 (P10415 whole entry): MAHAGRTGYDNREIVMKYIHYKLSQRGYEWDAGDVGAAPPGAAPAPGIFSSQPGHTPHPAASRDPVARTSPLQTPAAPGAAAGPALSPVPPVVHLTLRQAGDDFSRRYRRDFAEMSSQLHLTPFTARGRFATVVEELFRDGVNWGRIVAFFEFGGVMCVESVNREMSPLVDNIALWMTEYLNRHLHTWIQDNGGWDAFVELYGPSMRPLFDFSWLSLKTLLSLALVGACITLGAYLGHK

CC[C@]1(O)CC[C@H](COc2ncc(S(=O)(=O)NC(=O)c3ccc(N4CCN(CC5=C(c6ccc(Cl)cc6)CC(C)(C)CC5)CC4)cc3Oc3cccc4[nH]ncc34)cc2Cl)CC1 [Example 508, N-({5-chloro-6-[(trans-4-ethyl-4-hydroxycyclohexyl)methoxy]pyridin-3-yl}sulfonyl)-4-(4-{[2-(4-chlorophenyl)-4,4-dimethylcyclohex-1-en-1-yl]methyl}piperazin-1-yl)-2-(1H-indazol-4-yloxy)benzamide] was tested, and the Ki (GST-Bcl-2) was under 0.01 nM, the “Binding selectivity ratio (Bcl-XL Ki/Bcl-2 Ki)” value (“Binding selectivity ratio” for short) (GST-Bcl-2; [1]) was over 4315.2 and the Ki (GST-Bcl-XL) was 43.2 nM.
With CN(C)CCCNc1ccc(S(=O)(=O)NC(=O)c2ccc(N3CCN(CC4=C(c5ccc(Cl)cc5)CCC(C)(C)C4)CC3)cc2Oc2ccc3[nH]ccc3c2)cc1[N+](=O)[O-] [Example 51, 4-(4-{[2-(4-chlorophenyl)-5,5-dimethylcyclohex-1-en-1-yl]methyl}piperazin-1-yl)-N-[(4-{[3-(dimethylamino)propyl]amino}-3-nitrophenyl)sulfonyl]-2-(1H-indol-5-yloxy)benzamide] the Ki (GST-Bcl-2; GST-Bcl-2, F-Bak peptide probe) was 0.252 nM and the Ki (GST-Bcl-XL; [2]) was 15.6 nM.
In the case of CC1(C)CCC(CN2CCN(c3ccc(C(=O)NS(=O)(=O)c4ccc(NCC5CN(CC#N)CCO5)c([N+](=O)[O-])c4)c(Oc4cccc5[nH]cnc45)c3)CC2)=C(c2ccc(Cl)cc2)C1 (stereo not shown) [Example 431, 2-(1H-benzimidazol-4-yloxy)-4-(4-{[2-(4-chlorophenyl)-4,4-dimethylcyclohex-1-en-1-yl]methyl}piperazin-1-yl)-N-{[4-({[4-(cyanomethyl)morpholin-2-yl]methyl}amino)-3-nitrophenyl]sulfonyl}benzamide], the Ki (GST-Bcl-2; GST-Bcl-2, F-Bak peptide probe) is reported as under 0.01 nM, the “Binding selectivity ratio” value (GST-Bcl-2; [3]) is reported as 677.4 and the Ki (GST-Bcl-XL; [2]) is reported as 6.77 nM.
CN(C)CCCNc1ccc(S(=O)(=O)NC(=O)c2ccc(N3CCN(Cc4ccccc4-c4ccc(Cl)cc4)CC3)cc2Oc2cccc3cnccc23)cc1[N+](=O)[O-] [Example 42, 4-{4-[(4′-chloro-1,1′-biphenyl-2-yl)methyl]piperazin-1-yl}-N-[(4-{[3-(dimethylamino)propyl]amino}-3-nitrophenyl)sulfonyl]-2-(isoquinolin-5-yloxy)benzamide] gave a Ki (GST-Bcl-2; GST-Bcl-2, F-Bak peptide probe) of 0.048 nM and a Ki (GST-Bcl-XL; [2]) of 3.84 nM.
In the case of CC1(C)CCC(CN2CCN(c3ccc(C(=O)NS(=O)(=O)c4ccc(NC[C@H]5CN(C6CC6)CCO5)c([N+](=O)[O-])c4)c(Oc4cccc5[nH]nnc45)c3)CC2)=C(c2ccc(Cl)cc2)C1 [Example 527, 2-(1H-benzotriazol-4-yloxy)-4-(4-{[2-(4-chlorophenyl)-4,4-dimethylcyclohex-1-en-1-yl]methyl}piperazin-1-yl)-N-{[4-({[(2S)-4-cyclopropylmorpholin-2-yl]methyl}amino)-3-nitrophenyl]sulfonyl}benzamide], the Ki (GST-Bcl-2) is reported as under 0.01 nM, the “Binding selectivity ratio” value (GST-Bcl-2; [1]) is reported as over 421.9 and the Ki (GST-Bcl-XL) is reported as 4.22 nM.
O=C(NS(=O)(=O)c1ccc(NCC2CCOCC2)c(S(=O)(=O)C(F)(F)F)c1)c1ccc(N2CCN(Cc3cc(OCCCN4CCCCC4)ccc3-c3ccc(Cl)cc3)CC2)cc1Oc1ccccc1 [Example 118, 4-(4-{[4′-chloro-4-(3-piperidin-1-ylpropoxy)-1,1′-biphenyl-2-yl]methyl}piperazin-1-yl)-2-phenoxy-N-({4-[(tetrahydro-2H-pyran-4-ylmethyl)amino]-3-[(trifluoromethyl)sulfonyl]phenyl}sulfonyl)benzamide] showed a Ki (GST-Bcl-2; GST-Bcl-2, F-Bak peptide probe) of 0.769 nM and a Ki (GST-Bcl-XL; [2]) of over 660 nM.
CC1(C)CCC(CN2CCN(c3ccc(C(=O)NS(=O)(=O)c4cnc(OC[C@]5(F)CC[C@](C)(O)CC5)c(Cl)c4)c(Oc4cccc5[nH]ncc45)c3)CC2)=C(c2ccc(Cl)cc2)C1 [Example 513, N-({5-chloro-6-[(trans-1-fluoro-4-hydroxy-4-methylcyclohexyl)methoxy]pyridin-3-yl}sulfonyl)-4-(4-{[2-(4-chlorophenyl)-4,4-dimethylcyclohex-1-en-1-yl]methyl}piperazin-1-yl)-2-(1H-indazol-4-yloxy)benzamide] was tested, and the Ki (GST-Bcl-2) was under 0.01 nM, the “Binding selectivity ratio” value (GST-Bcl-2; [1]) was over 646.2 and the Ki (GST-Bcl-XL) was 6.46 nM.
For CC1(C)CCC(CN2CCN(c3ccc(C(=O)NS(=O)(=O)c4ccc(OCC5CCC(C)(O)CC5)c([N+](=O)[O-])c4)c(Oc4cccc5[nH]ncc45)c3)CC2)=C(c2ccc(Cl)cc2)C1 (stereo not drawn) [Example 533, 4-(4-{[2-(4-chlorophenyl)-4,4-dimethylcyclohex-1-en-1-yl]methyl}piperazin-1-yl)-N-({4-[(trans-4-hydroxy-4-methylcyclohexyl)methoxy]-3-nitrophenyl}sulfonyl)-2-(H-indazol-4-yloxy)benzamide], the Ki (GST-Bcl-2) was under 0.01 nM, the “Binding selectivity ratio” value (GST-Bcl-2; [1]) was over 1044.3 and the Ki (GST-Bcl-XL) was 10.4 nM.
In the case of CC1(C)CCC(CN2CCN(c3ccc(C(=O)NS(=O)(=O)c4ccc(OCC5(F)CCOCC5)c(C(F)(F)F)c4)c(Oc4cccc5[nH]ncc45)c3)CC2)=C(c2ccc(Cl)cc2)C1 [Example 497, 4-(4-{[2-(4-chlorophenyl)-4,4-dimethylcyclohex-1-en-1-yl]methyl}piperazin-1-yl)-N-({4-[(4-fluorotetrahydro-2H-pyran-4-yl)methoxy]-3-(trifluoromethyl)phenyl}sulfonyl)-2-(1H-indazol-4-yloxy)benzamide], the Ki (GST-Bcl-2) is reported as 0.082 nM, the “Binding selectivity ratio” value (GST-Bcl-2; [1]) is reported as 1517.4 and the Ki (GST-Bcl-XL) is reported as 124 nM.
O=C(NS(=O)(=O)c1ccc(NCC2CCOCC2)c(S(=O)(=O)C(F)(F)F)c1)c1ccc(N2CCN(Cc3ccccc3-c3ccc(Cl)cc3)CC2)cc1Oc1ccc2[nH]ccc2c1 [Example 62, 4-{4-[(4′-chloro-1,1′-biphenyl-2-yl)methyl]piperazin-1-yl}-2-(1H-indol-5-yloxy)-N-({4-[(tetrahydro-2H-pyran-4-ylmethyl)amino]-3-[(trifluoromethyl)sulfonyl]phenyl}sulfonyl)benzamide] showed a Ki (GST-Bcl-2; GST-Bcl-2, F-Bak peptide probe) of 3.52 nM and a Ki (GST-Bcl-XL; [2]) of 571 nM.
In the case of CC1(C)CCC(CN2CCN(c3ccc(C(=O)NS(=O)(=O)c4ccc(NCC5(N)CCOCC5)c([N+](=O)[O-])c4)c(Oc4ccc5[nH]ccc5c4)c3)CC2CO)=C(c2ccc(Cl)cc2)C1 (stereo not shown) [Example 237, N-[(4-{[(4-aminotetrahydro-2H-pyran-4-yl)methyl]amino}-3-nitrophenyl)sulfonyl]-4-[4-{[2-(4-chlorophenyl)-4,4-dimethylcyclohex-1-en-1-yl]methyl}-3-(hydroxymethyl)piperazin-1-yl]-2-(1H-indol-5-yloxy)benzamide], the Ki (GST-Bcl-2; GST-Bcl-2, F-Bak peptide probe) is reported as 0.401 nM and the Ki (GST-Bcl-XL; [2]) is reported as 268 nM.
With CC1(C)CCC(CN2CCN(c3ccc(C(=O)NS(=O)(=O)c4ccc(NC[C@H]5CC[C@H](C#N)CC5)c([N+](=O)[O-])c4)c(Oc4cccc5[nH]ncc45)c3)CC2)=C(c2ccc(Cl)cc2)C1 [Example 484, 4-(4-{[2-(4-chlorophenyl)-4,4-dimethylcyclohex-1-en-1-yl]methyl}piperazin-1-yl)-N-[(4-{[(trans-4-cyanocyclohexyl)methyl]amino}-3-nitrophenyl)sulfonyl]-2-(1H-indazol-4-yloxy)benzamide] the Ki (GST-Bcl-2) was under 0.01 nM, the “Binding selectivity ratio” value (GST-Bcl-2; [1]) was over 3433.9 and the Ki (GST-Bcl-XL) was 34.3 nM.
For CC1(C)CCC(CN2CCN(c3ccc(C(=O)NS(=O)(=O)c4ccc(OCC5(F)CCOCC5)c(Cl)c4)c(Oc4cccc5[nH]cnc45)c3)CC2)=C(c2ccc(Cl)cc2)C1 [Example 499, 2-(1H-benzimidazol-4-yloxy)-N-({3-chloro-4-[(4-fluorotetrahydro-2H-pyran-4-yl)methoxy]phenyl}sulfonyl)-4-(4-{[2-(4-chlorophenyl)-4,4-dimethylcyclohex-1-en-1-yl]methyl}piperazin-1-yl)benzamide], the Ki (GST-Bcl-2) was under 0.01 nM, the “Binding selectivity ratio” value (GST-Bcl-2; [1]) was over 10415.0 and the Ki (GST-Bcl-XL) was 104 nM.
With CC1(C)CCC(CN2CCN(c3ccc(C(=O)NS(=O)(=O)c4cnc(OCC5CCOC5)c(Cl)c4)c(Oc4cccc5[nH]ncc45)c3)CC2)=C(c2ccc(Cl)cc2)C1 (stereo not shown) [Example 420, 4-(4-{[2-(4-chlorophenyl)-4,4-dimethylcyclohex-1-en-1-yl]methyl}piperazin-1-yl)-N-{[5-chloro-6-(tetrahydrofuran-3-ylmethoxy)pyridin-3-yl]sulfonyl}-2-(1H-indazol-4-yloxy)benzamide] the Ki (GST-Bcl-2; GST-Bcl-2, F-Bak peptide probe) was 0.063 nM, the “Binding selectivity ratio” value (GST-Bcl-2; [3]) was 1153.3 and the Ki (GST-Bcl-XL; [2]) was 72.1 nM.
In the case of CC(=O)N1CCOC(CNc2ccc(S(=O)(=O)NC(=O)c3ccc(N4CCN(CC5=C(c6ccc(Cl)cc6)CC(C)(C)CC5)CC4)cc3Oc3cccc4[nH]cnc34)cc2[N+](=O)[O-])C1 (stereo not shown) [Example 457, N-[(4-{[(4-acetylmorpholin-2-yl)methyl]amino}-3-nitrophenyl)sulfonyl]-2-(1H-benzimidazol-4-yloxy)-4-(4-{[2-(4-chlorophenyl)-4,4-dimethylcyclohex-1-en-1-yl]methyl}piperazin-1-yl)benzamide], the Ki (GST-Bcl-2) is reported as 0.045 nM, the “Binding selectivity ratio” value (GST-Bcl-2; [1]) is reported as 7413.6 and the Ki (GST-Bcl-XL) is reported as 331 nM.
CC1(C)CCC(CN2CCN(c3ccc(C(=O)NS(=O)(=O)c4ccc(OCC5(F)CCN(C6COC6)CC5)c(Cl)c4)c(Oc4cccc5[nH]ncc45)c3)CC2)=C(c2ccc(Cl)cc2)C1 [Example 517, N-[(3-chloro-4-{[4-fluoro-1-(oxetan-3-yl)piperidin-4-yl]methoxy}phenyl)sulfonyl]-4-(4-{[2-(4-chlorophenyl)-4,4-dimethylcyclohex-1-en-1-yl]methyl}piperazin-1-yl)-2-(1H-indazol-4-yloxy)benzamide] was tested, and the Ki (GST-Bcl-2) was under 0.01 nM, the “Binding selectivity ratio” value (GST-Bcl-2; [1]) was over 607.7 and the Ki (GST-Bcl-XL) was 6.08 nM.
In the case of CC1(C)CCC(CN2CCN(c3ccc(C(=O)NS(=O)(=O)c4ccc(NCC5CN(CC(F)F)CCO5)c([N+](=O)[O-])c4)c(Oc4cccc5[nH]cnc45)c3)CC2)=C(c2ccc(Cl)cc2)C1 (stereo not shown) [Example 415, 2-(1H-benzimidazol-4-yloxy)-4-(4-{[2-(4-chlorophenyl)-4,4-dimethylcyclohex-1-en-1-yl]methyl}piperazin-1-yl)-N-{[4-({[4-(2,2-difluoroethyl)morpholin-2-yl]methyl}amino)-3-nitrophenyl]sulfonyl}benzamide], the Ki (GST-Bcl-2; GST-Bcl-2, F-Bak peptide probe) is reported as 0.002 nM, the “Binding selectivity ratio” value (GST-Bcl-2; [3]) is reported as 17326.9 and the Ki (GST-Bcl-XL; [2]) is reported as 26.9 nM.
